Columns and labels:
[1] = tested on: Alternaria alternata; test: Cell test on Alternaria alternata; assay type: cell-based; settings: under similar conditions (10 ppm, OD 620 nm after 5 days at 20° C.)
Method: Cell Test on Alternaria Alternata The growth of Alternaria alternata is performed on PDA medium at 20° C. under black light during 14 days. The PDA medium is prepared by mixing 39 grams of PDA (Merck) in 1 liter of demineralized water. The medium is sterilized by autoclave 15 minutes at 121° C. After 14 days of growth, the spores of Alternaria alternata are recovered in sterilized water and the concentration of spores adjusted to 10^6 spores per ml. The compounds is solubilized in DMSO and added to sterile liquid glucose/mycopeptone medium (14.6 g/l of D-glucose, 7.1 g/l of mycological peptone (Oxoid) and 1.4 g/l of yeast extract (Merck)) at a concentration of 10 ppm. The medium is inoculated with the spore suspension at a concentration of 10^5 spores per ml. The efficacy of the compounds is assessed by OD measurement at 620 nm after 5 days at 20° C. in comparison with a control.

[2] = tested on: Pyrenophora teres; test: In vivo test on Pyrenophora teres (barley net blotch); settings: barley plants (Express variety), preventive spray 24 hours before contamination, dose 330 ppm, grading 12 days after contamination vs control plants
Method: In Vivo Test on Pyrenophora Teres (Barley Net Blotch)
The active ingredients tested are prepared by homogenization in a mixture of acetone/tween/DMSO, then diluted with water to obtain the desired active material concentration.
Barley plants (Express variety), sown on a 50/50 peat soil-pozzolana substrate in starter cups and grown at 12° C., are treated at the 1-leaf stage (10 cm tall) by spraying with the active ingredient prepared as described above. Plants, used as controls, are treated with the mixture of acetone/tween/DMSO/water not containing the active material.
After 24 hours, the plants are contaminated by spraying them with an aqueous suspension of Pyrenophora teres spores (12,000 spores per ml). The spores are collected from a 12-day-old culture. The contaminated barley plants are incubated for 24 hours at about 20° C. and at 100% relative humidity, and then for 12 days at 80% relative humidity.
Grading is carried out 12 days after the contamination, in comparison with the control plants.

O=C(NOCc1ncc(C(F)(F)F)cc1Cl)c1c(Cl)cccc1Cl [Compound 501]
activity [1]: did not show any activity

O=C(NCOc1ncc(C(F)(F)F)cc1Cl)c1ccccc1C(F)(F)F [Compound 1, N-({[3-chloro-5-(trifluoromethyl)pyridin-2-yl]oxy}methyl)-2-(trifluoromethyl)benzamide]
protection [2]: at least 60%

O=C(NOCc1ncc(C(F)(F)F)cc1Cl)c1c(F)cccc1F [Compound 502, N-{[3-chloro-5-(trifluoromethyl)pyridin-2-yl]methoxy}-2,6-difluorobenzamide]
activity [1]: did not show any activity

From patent publication US20090298890A1, “NEW N-METHYL BENZAMIDE DERIVATIVES” (BAYER CROPSCIENCE SA, priority 2006, published 2009)
